16 molecules from ChEMBL document CHEMBL1914384, “Design, synthesis, and structure-activity relationship studies of highly potent novel benzoxazinyl-oxazolidinone antibacterial agents” (J Med Chem, 2011) can be followed below.

As a reminder, the MIC is the lowest concentration found to suppress growth. A low value points to inhibition by little substance. The term ED50 denotes the dose that gives a 50% effect, or the effect in half of the subjects. Read a low ED50 as greater potency.

Holding throughout (type): functional
The subject of experiment [1] is Enterococcus faecium. In words: Antibacterial activity against linezolid-resistant Enterococcus faecium after 16 hrs by agar dilution method.
The subject of experiment [2] is Staphylococcus aureus. In words: Antibacterial activity against linezolid-resistant Staphylococcus aureus after 16 hrs by agar dilution method. A general note: Agar dilution tests growth on a series of plates holding different concentrations.
Experiment [3] concerns Staphylococcus aureus. In words: Antibacterial activity against Staphylococcus aureus ATCC 19636 infected in mouse systemic infection model administered orally 1 hour after infection measured 48 hrs of post-treatment. Particulars: ATCC 19636, po.
Experiment [4] concerns Staphylococcus epidermidis. In words: Antibacterial activity against methicillin-resistant Staphylococcus epidermidis after 16 hrs by agar dilution method.
Experiment [5] concerns Staphylococcus aureus. In words: Antibacterial activity against Staphylococcus aureus ATCC 29213 after 16 hrs by agar dilution method. Particulars: ATCC 29213, 16 h.
In experiment [6] the test system is Staphylococcus epidermidis. In words: Antibacterial activity against linezolid-resistant Staphylococcus epidermidis after 16 hrs by agar dilution method.
Experiment [7] deals with Staphylococcus aureus. In words: Antibacterial activity against methicillin-resistant Staphylococcus aureus after 16 hrs by agar dilution method.
Experiment [8] deals with Staphylococcus aureus. In words: Antibacterial activity against methicillin-resistant Staphylococcus aureus ATCC 33591 infected in NSA mouse neutropenic model administered orally 1 hour after infection measured 48 hrs post-treatment. Particulars: ATCC 33591, po.
Experiment [9] relates to Enterococcus faecalis. In words: Antibacterial activity against linezolid-resistant Enterococcus faecalis after 16 hrs by agar dilution method.
A further experiment relates to Streptococcus pneumoniae. In words: Antibacterial activity against penicillin-resistant Streptococcus pneumoniae after 16 hrs by agar dilution method.
Experiment [10] concerns Enterococcus faecalis. In words: Antibacterial activity against Enterococcus faecalis after 16 hrs by agar dilution method.
The test system of experiment [11] is Enterococcus faecalis. In words: Antibacterial activity against Linezolid-resistant Enterococcus faecalis after 16 hrs by agar dilution method relative to Linezolid.
Experiment [12] has as its system Staphylococcus aureus. In words: Antibacterial activity against Linezolid-resistant Staphylococcus aureus after 16 hrs by agar dilution method relative to Linezolid.
Experiment [13] has as its system Enterococcus faecium. In words: Antibacterial activity against Linezolid-resistant Enterococcus faecium after 16 hrs by agar dilution method relative to Linezolid.
For experiment [14], the system named is Staphylococcus epidermidis. In words: Antibacterial activity against Linezolid-resistant Staphylococcus epidermidis after 16 hrs by agar dilution method relative to Linezolid.

In brackets after ≈: the same amount, converted by molar mass. Where only a bound is given, the exact number is not on record here.

As to `CC(=O)NC[C@H]1CN(c2ccc(N3CCOCC3)c(F)c2)C(=O)O1` [LINEZOLID], the minimal inhibitory concentration (MIC) against Enterococcus faecium [1] was 8 µg/mL (≈ 23.7 µM); against Staphylococcus aureus [2] it was greater than 16 µg/mL; in [4], 1 µg/mL (≈ 2.96 µM); in the experiment on Staphylococcus aureus [5], 1 µg/mL (≈ 2.96 µM); in experiment [6] it was 16 µg/mL (≈ 47.4 µM); with Staphylococcus aureus [7] it was 1 µg/mL (≈ 2.96 µM). For the same molecule, the values for the 50% effective dose (ED50) in the experiment with Staphylococcus aureus [3] and with Staphylococcus aureus [8] were 9.5 mg/kg and 14.1 mg/kg, respectively.

With `CC(=O)NC[C@@H]1OC(=O)N2c3ccc(-c4ccc([N+](=O)[O-])nc4)cc3OC[C@@H]12`, the minimum inhibitory concentration (MIC) in the experiment with Enterococcus faecalis [9] worked out at 1 µg/mL (≈ 2.6 µM); in the experiment on Enterococcus faecium [1], 1 µg/mL (≈ 2.6 µM); in the experiment with Staphylococcus aureus [2], 2 µg/mL (≈ 5.2 µM); against Streptococcus pneumoniae it was 0.5 µg/mL (≈ 1.3 µM); in the experiment on Enterococcus faecalis [10], 0.5 µg/mL (≈ 1.3 µM); in [4] it was 0.25 µg/mL (≈ 0.65 µM). Besides, the minimal inhibitory concentration (MIC) against Staphylococcus aureus [5] is 0.125 µg/mL (≈ 0.325 µM); in experiment [6], 2 µg/mL (≈ 5.2 µM); against Staphylococcus aureus [7], 0.25 µg/mL (≈ 0.65 µM).

Take `CC(=O)NC[C@@H]1OC(=O)N2c3ccc(-c4ccc(-c5nnnn5C)nc4)cc3OC[C@@H]12`: the MIC with Enterococcus faecalis [9] was determined as 1 µg/mL (≈ 2.37 µM); against Enterococcus faecium [1], 1 µg/mL (≈ 2.37 µM); in the experiment on Staphylococcus aureus [2], 4 µg/mL (≈ 9.49 µM); against Streptococcus pneumoniae, 0.25 µg/mL (≈ 0.593 µM); with Enterococcus faecalis [10], 0.5 µg/mL (≈ 1.19 µM); in experiment [4] it was 0.25 µg/mL (≈ 0.593 µM). Moreover, the MIC with Staphylococcus aureus [5] came to 0.5 µg/mL (≈ 1.19 µM); in [6], 2 µg/mL (≈ 4.75 µM); against Staphylococcus aureus [7], 0.25 µg/mL (≈ 0.593 µM).

Consider `CC(=O)NC[C@@H]1OC(=O)N2c3ccc(-c4ccc(C(C)=O)nc4)cc3OC[C@@H]12`, for which the MIC in the experiment on Enterococcus faecalis [9] was found to be 1 µg/mL (≈ 2.62 µM); in the experiment with Enterococcus faecium [1] it was 1 µg/mL (≈ 2.62 µM); with Staphylococcus aureus [2], 2 µg/mL (≈ 5.24 µM); in the experiment on Streptococcus pneumoniae it was 0.5 µg/mL (≈ 1.31 µM); against Enterococcus faecalis [10] it was 0.5 µg/mL (≈ 1.31 µM); in [4], 0.25 µg/mL (≈ 0.656 µM). Besides, the MIC in the experiment with Staphylococcus aureus [5] was 0.5 µg/mL (≈ 1.31 µM); in experiment [6] it was 1 µg/mL (≈ 2.62 µM); in the experiment with Staphylococcus aureus [7], 0.25 µg/mL (≈ 0.656 µM). Moreover, the “fold change (FC)” value (with Enterococcus faecalis [11]; with Staphylococcus aureus [12]; in the experiment with Enterococcus faecium [13]; in [14]) was 8 in each case. The molecule also registered a median effective dose (ED50) with Staphylococcus aureus [3] greater than 20 mg/kg.

Regarding `CC(=O)NC[C@@H]1OC(=O)N2c3ccc(-c4ccc(N)nc4)cc3OC[C@@H]12`, the MIC worked out at 2 µg/mL (≈ 5.64 µM) with Enterococcus faecalis [9]; 2 µg/mL (≈ 5.64 µM) against Enterococcus faecium [1]; 16 µg/mL (≈ 45.2 µM) with Staphylococcus aureus [2]; 0.5 µg/mL (≈ 1.41 µM) in the experiment with Streptococcus pneumoniae; 0.5 µg/mL (≈ 1.41 µM) with Enterococcus faecalis [10]; 0.5 µg/mL (≈ 1.41 µM) in experiment [4]. Moreover, the MIC was determined as 0.5 µg/mL (≈ 1.41 µM) in the experiment with Staphylococcus aureus [5], 4 µg/mL (≈ 11.3 µM) in experiment [6] and 0.5 µg/mL (≈ 1.41 µM) in the experiment on Staphylococcus aureus [7].

On to `CC(=O)NC[C@@H]1OC(=O)N2c3ccc(-c4ccc(C#CCO)nc4)cc3OC[C@@H]12`, for which the MIC came to 1 µg/mL (≈ 2.54 µM) against Enterococcus faecalis [9]; 1 µg/mL (≈ 2.54 µM) in the experiment with Enterococcus faecium [1]; 4 µg/mL (≈ 10.2 µM) in the experiment on Staphylococcus aureus [2]; 0.5 µg/mL (≈ 1.27 µM) against Streptococcus pneumoniae; 0.5 µg/mL (≈ 1.27 µM) against Enterococcus faecalis [10]; 0.25 µg/mL (≈ 0.635 µM) in experiment [4]. For the same molecule, the values for the MIC (against Staphylococcus aureus [5]; in [6]; against Staphylococcus aureus [7]) were 0.5 µg/mL (≈ 1.27 µM), 1 µg/mL (≈ 2.54 µM) and 0.25 µg/mL (≈ 0.635 µM), respectively.

For `CC(=O)NC[C@@H]1OC(=O)N2c3ccc(-c4ccc(C5(N)CC5)nc4)cc3OC[C@@H]12`, the MIC in the experiment with Enterococcus faecalis [9] is 4 µg/mL (≈ 10.1 µM); against Enterococcus faecium [1], 4 µg/mL (≈ 10.1 µM); in the experiment with Staphylococcus aureus [2] it was 16 µg/mL (≈ 40.6 µM); in the experiment on Streptococcus pneumoniae it was 0.5 µg/mL (≈ 1.27 µM); against Enterococcus faecalis [10] it was 0.5 µg/mL (≈ 1.27 µM); in experiment [4], 0.25 µg/mL (≈ 0.634 µM). Further, the MIC against Staphylococcus aureus [5] turned out to be 0.25 µg/mL (≈ 0.634 µM); in [6] it was 4 µg/mL (≈ 10.1 µM); with Staphylococcus aureus [7], 0.25 µg/mL (≈ 0.634 µM).

As for `COc1ccc(-c2ccc3c(c2)OC[C@H]2[C@H](CNC(C)=O)OC(=O)N32)cn1`, the minimum inhibitory concentration (MIC) was found to be 2 µg/mL (≈ 5.41 µM) in the experiment on Enterococcus faecalis [9]; 1 µg/mL (≈ 2.71 µM) against Enterococcus faecium [1]; 4 µg/mL (≈ 10.8 µM) in the experiment with Staphylococcus aureus [2]; 0.5 µg/mL (≈ 1.35 µM) against Streptococcus pneumoniae; 0.5 µg/mL (≈ 1.35 µM) against Enterococcus faecalis [10]; 0.5 µg/mL (≈ 1.35 µM) in [4]. Moreover, the MIC came to 0.25 µg/mL (≈ 0.677 µM) against Staphylococcus aureus [5], 2 µg/mL (≈ 5.41 µM) in [6] and 0.5 µg/mL (≈ 1.35 µM) in the experiment on Staphylococcus aureus [7].

On to `CC(=O)NC[C@@H]1OC(=O)N2c3ccc(-c4cnc(C#N)nc4)cc3OC[C@@H]12`, for which the minimal inhibitory concentration (MIC) against Streptococcus pneumoniae stood at 2 µg/mL (≈ 5.47 µM); against Enterococcus faecalis [10], 2 µg/mL (≈ 5.47 µM); in experiment [4], 0.5 µg/mL (≈ 1.37 µM); against Staphylococcus aureus [5], 1 µg/mL (≈ 2.74 µM); against Staphylococcus aureus [7], 1 µg/mL (≈ 2.74 µM).

Turning to `CC(=O)NC[C@@H]1OC(=O)N2c3ccc(-c4ccc(N5CCNCC5)nc4)cc3OC[C@@H]12`, the minimal inhibitory concentration (MIC) was found to be 1 µg/mL (≈ 2.36 µM) in the experiment with Streptococcus pneumoniae; 0.5 µg/mL (≈ 1.18 µM) against Enterococcus faecalis [10]; 0.5 µg/mL (≈ 1.18 µM) in experiment [4]; 0.5 µg/mL (≈ 1.18 µM) with Staphylococcus aureus [5]; 1 µg/mL (≈ 2.36 µM) against Staphylococcus aureus [7].

As for `CC(=O)NC[C@@H]1OC(=O)N2c3ccc(-c4cncc(C#N)c4)cc3OC[C@@H]12`, the MIC with Streptococcus pneumoniae was found to be 0.5 µg/mL (≈ 1.37 µM); against Enterococcus faecalis [10] it was 1 µg/mL (≈ 2.74 µM); in [4] it was 0.5 µg/mL (≈ 1.37 µM); in the experiment on Staphylococcus aureus [5] it was 0.5 µg/mL (≈ 1.37 µM); with Staphylococcus aureus [7], 0.5 µg/mL (≈ 1.37 µM).

With `CC(=O)NC[C@@H]1OC(=O)N2c3ccc(-c4ccc(C5(C#N)CC5)nc4)cc3OC[C@@H]12`, the minimal inhibitory concentration (MIC) in the experiment on Enterococcus faecalis [9] stood at 1 µg/mL (≈ 2.47 µM); in the experiment with Enterococcus faecium [1] it was 1 µg/mL (≈ 2.47 µM); in the experiment on Staphylococcus aureus [2], 8 µg/mL (≈ 19.8 µM); against Streptococcus pneumoniae it was 0.5 µg/mL (≈ 1.24 µM); against Enterococcus faecalis [10] it was 0.5 µg/mL (≈ 1.24 µM); in experiment [4], 0.5 µg/mL (≈ 1.24 µM). Besides, the values for the MIC (in the experiment on Staphylococcus aureus [5]; in experiment [6]; against Staphylococcus aureus [7]) were 0.5 µg/mL (≈ 1.24 µM), 1 µg/mL (≈ 2.47 µM) and 0.5 µg/mL (≈ 1.24 µM), respectively.

On to `CC(=O)NC[C@@H]1OC(=O)N2c3ccc(-c4ccc(C(=O)N(C)C)nc4)cc3OC[C@@H]12`, for which the minimal inhibitory concentration (MIC) against Streptococcus pneumoniae is 2 µg/mL (≈ 4.87 µM); with Enterococcus faecalis [10], 2 µg/mL (≈ 4.87 µM); in [4], 1 µg/mL (≈ 2.44 µM); against Staphylococcus aureus [5] it was 2 µg/mL (≈ 4.87 µM); in the experiment with Staphylococcus aureus [7], 1 µg/mL (≈ 2.44 µM).

For `COC(=O)c1ccc(-c2ccc3c(c2)OC[C@H]2[C@H](CNC(C)=O)OC(=O)N32)cn1`, the MIC with Streptococcus pneumoniae was determined as 1 µg/mL (≈ 2.52 µM); in the experiment with Enterococcus faecalis [10], 1 µg/mL (≈ 2.52 µM); in experiment [4], 0.5 µg/mL (≈ 1.26 µM); in the experiment on Staphylococcus aureus [5] it was 0.5 µg/mL (≈ 1.26 µM); in the experiment with Staphylococcus aureus [7], 0.5 µg/mL (≈ 1.26 µM).

Take `CC(=O)NC[C@@H]1OC(=O)N2c3ccc(N4CCN(Cc5cccnc5)CC4)cc3OC[C@@H]12`: the MIC with Streptococcus pneumoniae is greater than 16 µg/mL; with Enterococcus faecalis [10] it was greater than 16 µg/mL; in [4] it was greater than 16 µg/mL; against Staphylococcus aureus [5], 16 µg/mL (≈ 36.6 µM); against Staphylococcus aureus [7], greater than 16 µg/mL.

As to `CC(=O)NC[C@@H]1OC(=O)N2c3ccc(-c4ccc(C#N)cc4)cc3OC[C@@H]12`, the MIC with Streptococcus pneumoniae came to 0.5 µg/mL (≈ 1.38 µM); with Enterococcus faecalis [10], 1 µg/mL (≈ 2.75 µM); in experiment [4], 0.5 µg/mL (≈ 1.38 µM); with Staphylococcus aureus [5], 0.25 µg/mL (≈ 0.688 µM); against Staphylococcus aureus [7], 0.5 µg/mL (≈ 1.38 µM).
